Measured values taken from US20050009912A1, “Prodrugs of excitatory amino acids” (priority 2001, published 2005).

melting point | Structure (SMILES)
> 175 °C (dec.) | Cl.N[C@@]1(C(=O)OCc2ccccc2C(F)(F)F)CC[C@H]2[C@H](C(=O)O)[C@H]21
135 to 137 °C | Cl.N[C@@]1(C(=O)OCc2ccc(Cl)cc2Cl)CC[C@H]2[C@H](C(=O)O)[C@H]21 [Example 29, (1S,2S,5R,6S)-2-Amino-bicyclo[3.1.0]hexane-2,6-dicarboxylic acid 2-(2′,4′-dichloro)benzyl ester hydrochloride]
> 220 °C (dec.) | Cl.N[C@@]1(C(=O)OCc2ccccc2F)CC[C@H]2[C@H](C(=O)O)[C@H]21 [Example 31, (1S,2S,5R,6S)-2-Amino-bicyclo[3.1.0]hexane-2,6-dicarboxylic acid 2-(2′-fluoro)benzyl ester hydrochloride]
173 to 175 °C | Cl.N[C@@]1(C(=O)OCc2cc(Cl)ccc2Cl)CC[C@H]2[C@H](C(=O)O)[C@H]21 [Example 33, (1S,2S,5R,6S)-2-Amino-bicyclo[3.1.0]hexane-2,6-dicarboxylic acid 2-(2′,5′-dichloro)benzyl ester hydrochloride]
190 to 191 °C | Cl.N[C@@]1(C(=O)OCc2ccccc2Br)CC[C@H]2[C@H](C(=O)O)[C@H]21 [Example 34, (1S,2S,5R,6S)-2-Amino-bicyclo[3.1.0]hexane-2,6-dicarboxylic acid 2-(2′-bromo)benzyl ester hydrochloride]
98 to 99 °C | Cl.N[C@@]1(C(=O)OCc2cc(F)cc(F)c2)CC[C@H]2[C@H](C(=O)O)[C@H]21 [Example 35, (1S,2S,5R,6S)-2-Amino-bicyclo[3.1.0]hexane-2,6-dicarboxylic acid 2-(31,5′-difluoro)benzyl ester hydrochloride]
70 °C (dec.) | Cc1ccc(C)c(COC(=O)[C@]2(N)CC[C@H]3[C@H](C(=O)O)[C@H]32)c1.Cl [Example 41, (1S,2S,5R,6S)-2-Amino-bicyclo[3.1.0]hexane-2,6-dicarboxylic acid 2-(2′,5′-dimethyl)benzyl ester hydrochloride]
195 °C (dec.) | COc1ccccc1COC(=O)[C@]1(N)CC[C@H]2[C@H](C(=O)O)[C@H]21 [Example 48, (1S,2S, SR, 6S)-2-Amino-bicyclo[3.1.0]hexane-2,6-dicarboxylic acid 2-(2′-methoxy)benzyl ester]
225 °C (dec.) | N[C@@]1(C(=O)OCc2cccc(F)c2)CC[C@H]2[C@H](C(=O)O)[C@H]21 [Example 54, (1S, 2S, SR,6S)-2-Amino-bicyclo[3.1.0]hexane-2,6-dicarboxylic acid 2-(3′-fluoro)benzyl ester]
